Columns and labels:
[1] = Particle diameter by DLS and TEM; format: physicochemical; conditions: 20 µM NPs in H2O:DMSO 99:1, before interaction with NE
From the text: (§1) Submitted to Advanced Science
We obtained hepatocellular carcinoma (TCGA-LIHC) transcriptomic data from the Cancer Genome Atlas (TCGA) database (https://portal.gdc.cancer.gov/), quantified as transcripts per million (TPM). Tumor samples with complete clinical annotations (overall survival (OS), age, stage, etc.) were retained for further analysis.
Another HCC gene expression profile under the accession number E-TABM-36, containing 44 samples with available survival prognosis information, was obtained from the EBI Array database (https://www.ebi.ac.uk/arrayexpress/) as a validation set. […]
after being further diluted with DMSO (995, 795, 595, 395, 195, 95, 15, and 0 μL). To confirm the generation of NPs, measurements were made of the ultraviolet-visible (UV-vis) absorbance (UV-2600i, Japan) at approximately 410 nm and the fluorescence spectra (Cary 5000, Malaysia) at approximately 635 nm of solutions with different water contents. […]
temperature. […] In addition, the variation of fluorescence emission spectra of PpIX by […]
Pyrene molecules were employed as an indicator to determine the critical aggregation concentration (CAC) of nanoparticles by comparing the fluorescence of their third and first emissive peaks. […] The fluorescence spectra of pyrene (excitation, 335 nm) in different NPs dilutions were recorded. […]

[2] = test system: Hepa1-6/luc HCC xenograft; experiment: Subcutaneous Hepa1-6/luc tumor model, tumor growth; format: in vivo, mouse; conditions: C57BL/6J mice, 300 µM in 200 µL i.v. five times every two days; aPD-1 200 µg i.p. every 4 days, 3 doses; n = 5
Description: as §1
Total RNA was extracted and purified using a miRNeasy Mini Kit (FOREGENE, China). Quantitative real-time polymerase chain reaction (qRT-PCR) was performed in triplicate in the ABI 7500 fast real-time PCR System (Applied Biosystems, USA). The mRNAs were normalized with 18s. The following primers were used for PCR detection: E-cadherin, N-cadherin, Vimentin, and α-catenin.
Western blot analysis was performed to evaluate the levels of relative proteins in Hepa1-6/luc cells and Neutrophils.38 To evaluate NETs release, the neutrophils were exposed to PMA, PMA+NFTP -NPs, and PMA+FTP-NPs for 12 h. Following treatment, the cells underwent three PBS washes for WB to measure the expression of CitH3 proteins (Cat. no. ab5103, Abcam, Cambridge, England , UK). Furthermore, to evaluate EMT of Hepa1-6/luc cells, the cells underwent three PBS washes for WB to measure the expression of E - cadherin (Abmart, China), N-cadherin (Abmart, China), Vimentin (Abmart, China) , and β-catenin (Abmart, […]
In vivo subcutaneously implanted tumor models
The C57BL/6J mice with subcutaneous Hepa1-6/luc xenografts (grew up to roughly 100 mm 3) were separated into four groups according to the different treatments to perform the in vivo tumor therapy. […] Throughout the experiment, the tumor volumes and body weight were measured once every four days. […]

Row | Substance | diameter [1] | tumor growth / increase in tumor volume [2]
1 | PpIX-GGGAAK-EAIPMSIPPEVK [NFTP-NPs, nanoparticles of the non-fibrillar transformable control peptide NFTP] | 26.13±3.23 nm | –
2 | PpIX-GFFVLK-EAIPMSIPPEVK [FTP-NPs] | 24.27±4.50 nm and ≈ 25 nm | significant efficacy in suppressing tumor growth

From article PMC12767106, “In Situ Assembly of Transformable Monopeptide on Activated Neutrophils Attenuates NETs‐Induced Hepatocellular Carcinoma Metastasis by Disrupting NE Nuclear Translocation” (Advanced Science, 2025)
